In patent US20230000842A1, “METHODS OF TREATING CARTILAGE DISORDERS THROUGH INHIBITION OF CLK AND DYRK” (SAMUMED, LLC, priority 2019, published 2023):
pEC50: −log10 of the molar value.

Experiments:
CLK3 kinase = CLK3 kinase (Homo sapiens, UniProt P49761); test: CLK3 kinase activity assay (Z-lyte FRET); format: biochemical; conditions: Z-lyte Ser/Thr 18 peptide, 156 μM ATP, 1 h at room temperature;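 note: kinase activity read as coumarin/fluorescein emission ratio by FRET, unphosphorylated peptide as 0% and phosphorylated peptide as 100% control, values from non-linear regression of dose-response curves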
CLK3 kinase, sequence (P49761 whole entry): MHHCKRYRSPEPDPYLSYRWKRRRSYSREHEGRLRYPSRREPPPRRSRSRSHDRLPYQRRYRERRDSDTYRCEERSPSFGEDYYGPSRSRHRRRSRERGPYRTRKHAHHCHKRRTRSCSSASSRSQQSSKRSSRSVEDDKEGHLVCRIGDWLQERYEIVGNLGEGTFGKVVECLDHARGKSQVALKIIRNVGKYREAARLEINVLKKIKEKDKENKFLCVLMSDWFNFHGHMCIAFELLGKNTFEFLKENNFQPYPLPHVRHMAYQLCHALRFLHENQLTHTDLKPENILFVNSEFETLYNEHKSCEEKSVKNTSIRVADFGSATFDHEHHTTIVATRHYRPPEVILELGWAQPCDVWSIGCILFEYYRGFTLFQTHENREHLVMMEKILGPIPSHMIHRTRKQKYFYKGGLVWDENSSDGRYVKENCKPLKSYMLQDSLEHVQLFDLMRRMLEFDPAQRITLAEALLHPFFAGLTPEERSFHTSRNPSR
Description: This is a non-radioactive assay using fluorescence resonance energy transfer (FRET) between coumarin and fluorescein to detect kinase activity which is represented as a ratio of coumarin emission/fluorescein emission.
The mixture was allowed to incubate with the representative compounds for one hour at room temperature. All reactions were performed in duplicate. Unphosphorylated (“0% Control”) and phosphorylated (“100% control”) forms of Ser/Thr 18 served as control reactions. Additionally, an 11-point dose-response curve of Staurosporine (1 μM top) was run to serve as a positive compound control.
After incubation, Development Reagent A was diluted in Development Buffer then added to the reaction and allowed to further incubate for one hour at room temperature.
Dose-response curves were generated and inhibitory concentration (IC50) values were calculated using non-linear regression curve fit in the Dotmatics' Studies Software (Bishops Stortford, UK).

CLK2 kinase = CLK2 kinase (Homo sapiens, UniProt P49760); test: CLK2 kinase activity assay (Z-lyte FRET); format: biochemical; conditions: Z-lyte Ser/Thr 6 peptide, 60 μM ATP, 1 h at room temperature;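 note: FRET read-out as coumarin to fluorescein emission ratio, unphosphorylated peptide as 0% and phosphorylated peptide as 100% controls, duplicate reactions, non-linear regression fit of dose-response curves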
CLK2 kinase, sequence (P49760 whole entry): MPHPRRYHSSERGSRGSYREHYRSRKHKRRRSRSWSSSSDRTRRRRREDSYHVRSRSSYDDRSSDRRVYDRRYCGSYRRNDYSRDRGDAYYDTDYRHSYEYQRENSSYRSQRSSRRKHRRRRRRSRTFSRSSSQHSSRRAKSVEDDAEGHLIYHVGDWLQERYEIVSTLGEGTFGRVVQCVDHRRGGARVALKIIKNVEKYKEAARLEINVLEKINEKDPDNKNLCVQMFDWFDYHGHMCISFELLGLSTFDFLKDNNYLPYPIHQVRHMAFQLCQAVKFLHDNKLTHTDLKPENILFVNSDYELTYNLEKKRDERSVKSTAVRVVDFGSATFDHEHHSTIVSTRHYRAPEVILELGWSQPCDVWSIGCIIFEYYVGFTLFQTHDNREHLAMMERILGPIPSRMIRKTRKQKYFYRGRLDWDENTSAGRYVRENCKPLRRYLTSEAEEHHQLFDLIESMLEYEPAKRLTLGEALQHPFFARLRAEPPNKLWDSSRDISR

[1] = system: primary human mesenchymal stem cells (hMSCs); test: Chondrogenesis screening using primary human mesenchymal stem cells; format: cell-based; conditions: Homo sapiens, Mesenchymal stem cells, hMSC chondrogenesis; for EC50: concentration required to induce 50% levels of chondrogenesis with TGF-β3 as positive control, read-out: Conc (nM) of 50% TGF-β3 activity; for Emax: maximum activity relative to TGF-β3 (10 ng/mL) positive control, read-out: Max. Activity as % TGF-β3 activity
In short: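 Primary hMSCs at passage 3–6 were treated across compound concentrations, with TGF-β3 as positive control. Chondrogenic nodule area per well was normalized to 3 DMSO wells on the same plate (fold over DMSO, 2–3 replicates). EC50, maximum activity and the dose reaching it were derived.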

[2] = system: Wnt pathway activity (SW480 colon carcinoma cells stably expressing the Sp5-Luc reporter); test: Wnt pathway activity screening assay (Sp5-Luc reporter gene assay); conditions: Homo sapiens, SW480, Table 4; SW480 cells stably expressing Sp5-Luc reporter, 10-point dose-response from 10 μM, 36 to 48 hours

Compound `CC(C)Nc1cncc(-c2ccc3[nH]nc(-c4nc5c(-c6cccnc6)cncc5[nH]4)c3n2)c1` [compound 194] has a pEC50 (CLK3 kinase) of 6.67, a pEC50 (CLK2 kinase) of 8.70 and an EC50 [1] of 30 nM. For the same compound, the Emax [1] was 64.6% and the pEC50 [2] was 5.90.

Work on `CC(C)Nc1cncc(-c2ccc3[nH]nc(-c4nc5c(-c6cccnc6)ccnc5[nH]4)c3n2)c1` [compound 195] yielded a pEC50 (CLK3 kinase) of 6.55, a pEC50 (CLK2 kinase) of 9.00 and an EC50 [1] of 10 nM. It also gave an Emax [1] of 114% and a pEC50 [2] of 5.76.

With `CCCC(=O)Nc1cncc(-c2ccc3[nH]nc(-c4nc5c(-c6ccncc6)cncc5[nH]4)c3n2)c1` [compound 196] the pEC50 (CLK3 kinase) was 6.00, the pEC50 (CLK2 kinase) was 8.30 and the Emax [1] was 31%. For the same compound, the pEC50 [2] was 6.00.

Work on `O=C(Nc1cncc(-c2ccc3[nH]nc(-c4nc5c(-c6ccncc6)ccnc5[nH]4)c3n2)c1)C1CCCCC1` [compound 198] yielded a pEC50 (CLK3 kinase) of 6.01, a pEC50 (CLK2 kinase) of 7.96 and an EC50 [1] of 10 nM. It also gave an Emax [1] of 68.6% and a pEC50 [2] of 6.00.

Work on `c1cncc(-c2cc3c(-c4nc5ccccc5[nH]4)n[nH]c3cn2)c1` [compound 200] yielded a pEC50 (CLK3 kinase) of 6.68, a pEC50 (CLK2 kinase) of 7.66 and an EC50 [1] of 30 nM. For the same compound, the Emax [1] was 80.5% and the pEC50 [2] was 7.70.

Compound `c1cncc(-c2ccc3[nH]nc(-c4nc5cnccc5[nH]4)c3n2)c1` [compound 201] has a pEC50 (CLK3 kinase) of 5.64, a pEC50 (CLK2 kinase) of 7.82 and an EC50 [1] of 30 nM. It also gave an Emax [1] of 54.8% and a pEC50 [2] of under 5.00.

`CC(C)(C)CC(=O)Nc1cncc(-c2ccc3[nH]nc(-c4nc5ccncc5[nH]4)c3c2)c1` [compound 202] gave a pEC50 (CLK3 kinase) of 7.19, a pEC50 (CLK2 kinase) of 8.70 and an EC50 [1] of 100 nM. It also gave an Emax [1] of 152% and a pEC50 [2] of 7.68.

Compound `CC(C)(C)CC(=O)Nc1cncc(-c2ccc3[nH]nc(-c4nc5ccncc5[nH]4)c3n2)c1` [compound 203] has a pEC50 (CLK3 kinase) of 6.25, a pEC50 (CLK2 kinase) of 7.96 and an EC50 [1] of 10 nM. It also gave an Emax [1] of 54.1% and a pEC50 [2] of under 5.00.

`O=C(Nc1cncc(-c2ccc3[nH]nc(-c4nc5ccncc5[nH]4)c3c2)c1)C1CC1` [compound 204] was tested, and the pEC50 (CLK3 kinase) was 6.69, the pEC50 (CLK2 kinase) was 7.57 and the Emax [1] was 93.8%. It also gave a pEC50 [2] of 8.10.

`CCC(=O)Nc1cncc(-c2ccc3[nH]nc(-c4nc5c(N6CCCCC6)cncc5[nH]4)c3n2)c1` [compound 206] gave a pEC50 (CLK3 kinase) of 6.67, a pEC50 (CLK2 kinase) of 7.92 and an EC50 [1] of 900 nM. It also gave an Emax [1] of 69.8% and a pEC50 [2] of under 5.00.

`CCC(=O)Nc1cncc(-c2ccc3[nH]nc(-c4nc5c(N6CCCCC6)ccnc5[nH]4)c3n2)c1` [compound 207] showed a pEC50 (CLK3 kinase) of 5.89, a pEC50 (CLK2 kinase) of 8.52 and an Emax [1] of 38.3%. For the same compound, the pEC50 [2] was under 5.00.

In the case of `CC(C)(C)C(=O)Nc1cncc(-c2ccc3[nH]nc(-c4nc5c(N6CCCCC6)cncc5[nH]4)c3c2)c1` [compound 209], the pEC50 (CLK3 kinase) was 7.03, the pEC50 (CLK2 kinase) was 7.96 and the EC50 [1] was 100 nM. It also gave an Emax [1] of 114% and a pEC50 [2] of 7.39.

Work on `O=C(Nc1cncc(-c2ccc3[nH]nc(-c4nc5c(N6CCCCC6)cncc5[nH]4)c3c2)c1)C1CCC1` [compound 210] yielded a pEC50 (CLK3 kinase) of 7.27, a pEC50 (CLK2 kinase) of 8.15 and an EC50 [1] of 30 nM. It also gave an Emax [1] of 106% and a pEC50 [2] of 7.41.

Compound `FC1(F)CCN(Cc2cncc(-c3ccc4[nH]nc(-c5nc6c(N7CCCCC7)cncc6[nH]5)c4c3)c2)C1` [compound 211] has a pEC50 (CLK3 kinase) of 6.97, a pEC50 (CLK2 kinase) of 8.10 and an Emax [1] of 80.1%. For the same compound, the pEC50 [2] was 7.70.

Work on `FC1(F)CCN(Cc2cncc(-c3cc4c(-c5nc6c(N7CCCCC7)cncc6[nH]5)n[nH]c4cn3)c2)C1` [compound 212] yielded a pEC50 (CLK3 kinase) of 7.05, a pEC50 (CLK2 kinase) of 8.30 and an EC50 [1] of 10 nM. The Emax [1] was 100% and the pEC50 [2] was 6.93.

In the case of `CN1CCN(c2cncc3[nH]c(-c4n[nH]c5ccc(-c6cccnc6)cc45)nc23)CC1` [compound 213], the pEC50 (CLK3 kinase) was 7.29, the pEC50 (CLK2 kinase) was 9.00 and the Emax [1] was 80.6%. The pEC50 [2] was 7.28.

`CN1CCN(c2nccc3[nH]c(-c4n[nH]c5ccc(-c6cncc(N)c6)nc45)nc23)CC1` [compound 214] was tested, and the pEC50 (CLK3 kinase) was 6.46, the pEC50 (CLK2 kinase) was 8.70 and the EC50 [1] was 100 nM. For the same compound, the Emax [1] was 135% and the pEC50 [2] was under 5.00.

`CN1CCN(c2cncc3[nH]c(-c4n[nH]c5ccc(-c6cncc(N)c6)nc45)nc23)CC1` [compound 215] was tested, and the pEC50 (CLK3 kinase) was 6.30, the pEC50 (CLK2 kinase) was 8.30 and the EC50 [1] was 30 nM. For the same compound, the Emax [1] was 64.6% and the pEC50 [2] was under 5.00.

For `CN1CCN(c2ccnc3[nH]c(-c4n[nH]c5ccc(-c6cncc(N)c6)nc45)nc23)CC1` [compound 216], the pEC50 (CLK3 kinase) was 6.07, the pEC50 (CLK2 kinase) was 8.70 and the Emax [1] was 46.9%. The pEC50 [2] was under 5.00.

With `CN1CCN(c2cncc3[nH]c(-c4n[nH]c5ccc(-c6cncc(N7CCOCC7)c6)cc45)nc23)CC1` [compound 218] the pEC50 (CLK3 kinase) was 7.49, the pEC50 (CLK2 kinase) was 9.00 and the Emax [1] was 63.8%. It also gave a pEC50 [2] of 7.08.

Work on `Cc1cn(-c2nccc3[nH]c(-c4n[nH]c5ccc(-c6cncc(NC(=O)C(C)(C)C)c6)nc45)nc23)cn1` [compound 221] yielded a pEC50 (CLK3 kinase) of 6.73, a pEC50 (CLK2 kinase) of 8.52 and an EC50 [1] of 30 nM. For the same compound, the Emax [1] was 69.7% and the pEC50 [2] was under 5.00.

Compound `Cc1cn(-c2ccnc3[nH]c(-c4n[nH]c5ccc(-c6cncc(NC(=O)C(C)(C)C)c6)nc45)nc23)cn1` [compound 223] has a pEC50 (CLK3 kinase) of 6.91, a pEC50 (CLK2 kinase) of 8.52 and an EC50 [1] of 10 nM. For the same compound, the Emax [1] was 70.2% and the pEC50 [2] was under 5.00.

With `Cc1cn(-c2nccc3[nH]c(-c4n[nH]c5ccc(-c6cncc(NC(=O)CC(C)C)c6)cc45)nc23)cn1` [compound 224] the pEC50 (CLK3 kinase) was 7.25, the pEC50 (CLK2 kinase) was 7.92 and the EC50 [1] was 30 nM. The Emax [1] was 73.7% and the pEC50 [2] was 7.98.

Compound `Cc1cn(-c2nccc3[nH]c(-c4n[nH]c5ccc(-c6cncc(NC(=O)CC(C)C)c6)nc45)nc23)cn1` [compound 226] has a pEC50 (CLK3 kinase) of 6.94, a pEC50 (CLK2 kinase) of 8.40 and an EC50 [1] of 30 nM. The Emax [1] was 69.3% and the pEC50 [2] was 5.54.

`Cc1cn(-c2cncc3[nH]c(-c4n[nH]c5ccc(-c6cncc(NC(=O)C7CCC7)c6)nc45)nc23)cn1` [compound 227] gave a pEC50 (CLK3 kinase) of 5.88, a pEC50 (CLK2 kinase) of 8.00 and an Emax [1] of 47.2%. The pEC50 [2] was under 5.00.

In the case of `Cc1cn(-c2ccnc3[nH]c(-c4n[nH]c5ccc(-c6cncc(NC(=O)C7CCC7)c6)nc45)nc23)cn1` [compound 228], the pEC50 (CLK3 kinase) was 6.97, the pEC50 (CLK2 kinase) was 8.40 and the EC50 [1] was 300 nM. For the same compound, the Emax [1] was 69.1% and the pEC50 [2] was under 5.00.

With `c1cncc(-c2ccc3[nH]nc(-c4nc5c(-c6ccoc6)cncc5[nH]4)c3c2)c1` [compound 229] the pEC50 (CLK3 kinase) was 7.36, the pEC50 (CLK2 kinase) was 8.70 and the EC50 [1] was 100 nM. It also gave an Emax [1] of 149% and a pEC50 [2] of 7.34.

`CCCC(=O)Nc1cncc(-c2cnc3[nH]nc(-c4nc5c(-c6ccoc6)cccc5[nH]4)c3c2)c1` [compound 230] showed a pEC50 (CLK3 kinase) of 7.06, a pEC50 (CLK2 kinase) of 8.40 and an EC50 [1] of 100 nM. The Emax [1] was 111% and the pEC50 [2] was 7.20.

In the case of `CCCCC(=O)Nc1cncc(-c2ccc3[nH]nc(-c4nc5c(-c6ccoc6)cncc5[nH]4)c3n2)c1` [compound 231], the pEC50 (CLK3 kinase) was 6.44, the pEC50 (CLK2 kinase) was 8.52 and the EC50 [1] was 10 nM. For the same compound, the Emax [1] was 73.6% and the pEC50 [2] was under 5.00.

Compound `CC(C)(C)C(=O)Nc1cncc(-c2cnc3[nH]nc(-c4nc5c(-c6ccoc6)cncc5[nH]4)c3c2)c1` [compound 232] has a pEC50 (CLK3 kinase) of 6.84, a pEC50 (CLK2 kinase) of 8.30 and an EC50 [1] of 30 nM. The Emax [1] was 144% and the pEC50 [2] was 7.15.

With `CC(C)CC(=O)Nc1cncc(-c2cc3c(-c4nc5c(-c6ccoc6)cccc5[nH]4)n[nH]c3cn2)c1` [compound 233] the pEC50 (CLK3 kinase) was 6.28, the pEC50 (CLK2 kinase) was 8.10 and the Emax [1] was 58%. For the same compound, the pEC50 [2] was 7.26.
